Laboratory results published in patent publication US11820766B2, “Monoacylglycerol lipase modulators” (Janssen Pharmaceutica NV, priority 2018, dated 2023).

molecular target: T1, human MGL from HeLa cells (Homo sapiens, UniProt Q99685); assay: In vitro MGL activity assay: [glycerol-1,3-3H]-oleyl glycerol cleavage by MGL from HeLa cells; assay type: biochemical; conditions: 300 nM [Glycerol-1,3-3H]-oleyl glycerol, one hour
T1 construct: combining endogenously expressed MGL from HeLa cells with test compounds; endogenous in cells; host or cells: HeLa cells / cell homogenates
T1 sequence (Q99685 1-303): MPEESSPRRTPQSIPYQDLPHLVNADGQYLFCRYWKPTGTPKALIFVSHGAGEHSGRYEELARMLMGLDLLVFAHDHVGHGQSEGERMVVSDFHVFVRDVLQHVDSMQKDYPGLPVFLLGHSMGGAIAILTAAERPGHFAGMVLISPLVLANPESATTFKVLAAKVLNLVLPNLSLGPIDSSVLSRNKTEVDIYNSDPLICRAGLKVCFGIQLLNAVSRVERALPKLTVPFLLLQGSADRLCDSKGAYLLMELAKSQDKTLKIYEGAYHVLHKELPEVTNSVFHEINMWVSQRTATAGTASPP
Text: MGL is the predominant hydrolase in HeLa cells/cell homogenates.

First: C[C@H]1c2nn(C)c(-c3cc(F)c(F)c(F)c3)c2CCN1C(=O)c1cc2n(n1)CCCO2 [Example 553, 6,7-Dihydro-5H-pyrazolo[5,1-b][1,3]oxazin-2-yl-[(7S)-2,7-dimethyl-3-(3,4,5-trifluorophenyl)-5,7-dihydro-4H-pyrazolo[3,4-c]pyridin-6-yl]methanone]
Second: C[C@H]1c2nn(C)c(-c3cc(F)c(F)c(F)c3)c2CCN1C(=O)c1cnc2n1CCOC2 [Example 562, 6,8-Dihydro-5H-imidazo[2,1-c][1,4]oxazin-3-yl-[(7S)-2,7-dimethyl-3-(3,4,5-trifluorophenyl)-5,7-dihydro-4H-pyrazolo[3,4-c]pyridin-6-yl]methanone]
The IC50 of the first is 2.5-fold lower: 285 nM for the first, 717 nM for the second.

Compared with `C[C@H]1c2nn(C)c(-c3cc(F)c(F)c(F)c3)c2CCN1C(=O)c1cnc2[nH]ccc2c1` [Example 368, [(7S)-2,7-Dimethyl-3-(3,4,5-trifluorophenyl)-5,7-dihydro-4H-pyrazolo[3,4-c]pyridin-6-yl]-(1H-pyrrolo[2,3-b]pyridin-5-yl)methanone], `Cc1cnc2c(C(=O)N3CCc4c(nn(C)c4-c4cc(F)c(F)c(F)c4)[C@@H]3C)cccc2n1` [Example 474, [(7S)-2,7-Dimethyl-3-(3,4,5-trifluorophenyl)-5,7-dihydro-4H-pyrazolo[3,4-c]pyridin-6-yl]-(2-methylquinoxalin-5-yl)methanone] is 9.1-fold higher in IC50: 9.36 nM for the first, 85.3 nM for the second.

`COc1cc(F)cc(-c2c3c(nn2C)[C@H](C)N(C(=O)c2ccnc(OC)c2C)CC3)c1` [Example 613, [(7S)-3-(3-Fluoro-5-methoxy-phenyl)-2,7-dimethyl-5,7-dihydro-4H-pyrazolo[3,4-c]pyridin-6-yl]-(2-methoxy-3-methyl-4-pyridyl)methanone] and `C[C@H]1c2nn(C)c(-c3cc(F)c(F)c(F)c3)c2CCN1C(=O)c1ccnc2cccnc12` [Example 485, [(7S)-2,7-Dimethyl-3-(3,4,5-trifluorophenyl)-5,7-dihydro-4H-pyrazolo[3,4-c]pyridin-6-yl]-(1,5-naphthyridin-4-yl)methanone] are within 1.5-fold of each other in IC50: 27.8 nM for the first, 33.2 nM for the second.

First: C[C@H]1c2nn(C)c(-c3cc(F)c(F)c(F)c3)c2CCN1C(=O)c1c(C(F)F)nc2ccccn12 [Example 412, [2-(Difluoromethyl)imidazo[1,2-a]pyridin-3-yl]-[(7S)-2,7-dimethyl-3-(3,4,5-trifluorophenyl)-5,7-dihydro-4H-pyrazolo[3,4-c]pyridin-6-yl]methanone]
Second: C[C@H]1c2nn(C)c(-c3cc(F)c(F)c(F)c3)c2CCN1C(=O)c1cccc2[nH]nnc12 [Example 367, 1H-Benzotriazol-4-yl-[(7S)-2,7-dimethyl-3-(3,4,5-trifluorophenyl)-5,7-dihydro-4H-pyrazolo[3,4-c]pyridin-6-yl]methanone]
The IC50 of the first is 51-fold lower: 12.9 nM for the first, 658 nM for the second. The first is the more potent here.

Going from `Cc1ccccc1-c1c2c(nn1C)[C@H](C)N(C(=O)c1ccc3ncccc3c1)CC2` [Example 492, [(7S)-2,7-Dimethyl-3-(o-tolyl)-5,7-dihydro-4H-pyrazolo[3,4-c]pyridin-6-yl]-(6-quinolyl)methanone] to `Cc1ccnc2ccc(C(=O)N3CCc4c(nn(C)c4-c4cc(F)c(F)c(F)c4)[C@@H]3C)cc12` [Example 549, [(7S)-2,7-Dimethyl-3-(3,4,5-trifluorophenyl)-5,7-dihydro-4H-pyrazolo[3,4-c]pyridin-6-yl]-(4-methyl-6-quinolyl)methanone], the IC50 falls from 220 nM to 1.99 nM (110-fold). The second is the more potent here.

First: C[C@H]1c2nn(C)c(-c3cc(F)c(F)c(F)c3)c2CCN1C(=O)c1ncnc2c1cnn2C [Example 471, [(7S)-2,7-Dimethyl-3-(3,4,5-trifluorophenyl)-5,7-dihydro-4H-pyrazolo[3,4-c]pyridin-6-yl]-(1-methylpyrazolo[3,4-d]pyrimidin-4-yl)methanone]
Second: C[C@H]1c2nn(C)c(-c3cc(F)c(F)c(F)c3)c2CCN1C(=O)c1cncc2cn[nH]c12 [Example 434, [(7S)-2,7-Dimethyl-3-(3,4,5-trifluorophenyl)-5,7-dihydro-4H-pyrazolo[3,4-c]pyridin-6-yl]-(1H-pyrazolo[4,3-c]pyridin-7-yl)methanone]
The IC50 of the first is 8.5-fold lower: 32.5 nM for the first, 277 nM for the second. The first is the more potent here.

same assay, conditions: 300 nM [Glycerol-1,3-3H]-oleyl glycerol, one hour incubation

Going from `CC1c2nn(C)c(-c3cc(F)cc(Cl)c3)c2CCN1C(=O)c1ccc2nccnc2c1` (centres unmarked) [Example 180, (3-(3-Chloro-5-fluorophenyl)-2,7-dimethyl-2,4,5,7-tetrahydro-6H-pyrazolo[3,4-c]pyridin-6-yl)(quinoxalin-6-yl)methanone] to `C[C@H]1c2nn(C)c(-c3ccc(OC(F)F)c(F)c3)c2CCN1C(=O)c1ccc2nccnc2c1` [Example 189, (S)-(3-(4-(Difluoromethoxy)-3-fluorophenyl)-2,7-dimethyl-2,4,5,7-tetrahydro-6H-pyrazolo[3,4-c]pyridin-6-yl)(quinoxalin-6-yl)methanone], the IC50 rises from 31.3 nM to 102 nM (3.3-fold). The first is the more potent here.

First: Cn1nc2c(c1-c1cccc(OC(F)F)c1)CCN(C(=O)c1ccc3ncccc3c1)C2 [Example 98, (3-(3-(Difluoromethoxy)phenyl)-2-methyl-2,4,5,7-tetrahydro-6H-pyrazolo[3,4-c]pyridin-6-yl)(quinolin-6-yl)methanone]
Second: CC1c2nn(C)c(-c3ccc4c(ccn4C)c3)c2CCN1C(=O)c1ccc2ncccc2c1 (centres unmarked) [Example 252, (2,7-Dimethyl-3-(1-methyl-1H-indol-5-yl)-2,4,5,7-tetrahydro-6H-pyrazolo[3,4-c]pyridin-6-yl)(quinolin-6-yl)methanone]
The IC50 of the first is 1.5-fold higher: 973 nM for the first, 631 nM for the second. The second is the more potent here.

Compared with `C[C@H]1c2nn(C)c(-c3cccc(Cl)c3)c2CCN1C(=O)c1cccc2c1OCO2` [Example 123, (S)-Benzo[d][1,3]dioxol-4-yl(3-(3-chlorophenyl)-2,7-dimethyl-2,4,5,7-tetrahydro-6H-pyrazolo[3,4-c]pyridin-6-yl)methanone], `C[C@H]1c2nn(C)c(-c3cccc(Cl)c3)c2CCN1C(=O)c1cc(Cl)cc(OC(F)(F)F)c1` [Example 116, (S)-(3-Chloro-5-(trifluoromethoxy)phenyl)(3-(3-chlorophenyl)-2,7-dimethyl-2,4,5,7-tetrahydro-6H-pyrazolo[3,4-c]pyridin-6-yl)methanone] is 4.4-fold higher in IC50: 45.1 nM for the first, 199 nM for the second.

Compared with `CC1c2nn(C)c(-c3cc4ccccc4n3C)c2CCN1C(=O)c1ccc2ncccc2c1` (centres unmarked) [Example 250, (2,7-Dimethyl-3-(1-methyl-1H-indol-2-yl)-2,4,5,7-tetrahydro-6H-pyrazolo[3,4-c]pyridin-6-yl)(quinolin-6-yl)methanone], `C[C@@H]1c2nn(C)c(-c3cc(F)c(F)c(F)c3)c2CCN1C(=O)c1ccc2ncccc2c1` [Example 235, (R)-(2,7-Dimethyl-3-(3,4,5-trifluorophenyl)-2,4,5,7-tetrahydro-6H-pyrazolo[3,4-c]pyridin-6-yl)(quinolin-6-yl)methanone] is 18-fold higher in IC50: 206 nM for the first, 3660 nM for the second. The first is the more potent here.

Compared with `COc1cc(F)cc(-c2c3c(nn2C)[C@H](C)N(C(=O)c2cc4nccnc4cc2F)CC3)c1` [Example 187, (S)-(3-(3-Fluoro-5-methoxyphenyl)-2,7-dimethyl-2,4,5,7-tetrahydro-6H-pyrazolo[3,4-c]pyridin-6-yl)(7-fluoroquinoxalin-6-yl)methanone], `COc1ccc(-n2nccn2)c(C(=O)N2CCc3c(nn(C)c3-c3cc(F)c(F)c(F)c3)[C@@H]2C)c1` [Example 289, [(7S)-2,7-Dimethyl-3-(3,4,5-trifluorophenyl)-5,7-dihydro-4H-pyrazolo[3,4-c]pyridin-6-yl]-[5-methoxy-2-(triazol-2-yl)phenyl]methanone] is 2.1-fold lower in IC50: 41.7 nM for the first, 19.8 nM for the second.

Going from `C[C@H]1c2nn(C)c(-c3cc(F)c(F)c(F)c3)c2CCN1C(=O)c1cccc2ccn(C)c12` [Example 206, (S)-(2,7-Dimethyl-3-(3,4,5-trifluorophenyl)-2,4,5,7-tetrahydro-6H-pyrazolo[3,4-c]pyridin-6-yl)(1-methyl-1H-indol-7-yl)methanone] to `C[C@H]1c2nn(C)c(-c3cc(F)c(F)c(F)c3)c2CCN1C(=O)c1cn(C)c2ccncc12` [Example 219, (S)-(2,7-Dimethyl-3-(3,4,5-trifluorophenyl)-2,4,5,7-tetrahydro-6H-pyrazolo[3,4-c]pyridin-6-yl)(1-methyl-1H-pyrrolo[3,2-c]pyridin-3-yl)methanone], the IC50 rises from 4.91 nM to 28.6 nM (5.8-fold).

Compared with `C[C@H]1c2nn(C)c(-c3cc(F)c(F)c(F)c3)c2CCN1C(=O)c1cccc(-n2cc(F)cn2)c1` [Example 275, [(7S)-2,7-Dimethyl-3-(3,4,5-trifluorophenyl)-5,7-dihydro-4H-pyrazolo[3,4-c]pyridin-6-yl]-[3-(4-fluoropyrazol-1-yl)phenyl]methanone], `COc1cc(C(=O)N2CCc3c(nn(C)c3-c3cc(F)c(F)c(F)c3)[C@@H]2C)cc(-n2cnnc2)c1` [Example 298, [(7S)-2,7-Dimethyl-3-(3,4,5-trifluorophenyl)-5,7-dihydro-4H-pyrazolo[3,4-c]pyridin-6-yl]-[3-methoxy-5-(1,2,4-triazol-4-yl)phenyl]methanone] is 3.6-fold lower in IC50: 67.3 nM for the first, 18.7 nM for the second.

`Cn1nc2c(c1-c1ccccc1)CCN(C(=O)c1cccc(OC(F)(F)F)n1)C2` [Example 25, (2-Methyl-3-phenyl-2,4,5,7-tetrahydro-6H-pyrazolo[3,4-c]pyridin-6-yl)(6-(trifluoromethoxy)pyridin-2-yl)methanone] and `Cc1cccc2cc(C(=O)N3CCc4c(nn(C)c4-c4ccccc4)C3)[nH]c12` [Example 50, (7-Methyl-1H-indol-2-yl)(2-methyl-3-phenyl-2,4,5,7-tetrahydro-6H-pyrazolo[3,4-c]pyridin-6-yl)methanone] are within 1.5-fold of each other in IC50: 2430 nM for the first, 2000 nM for the second.

`C[C@H]1c2nn(C)c(-c3cc(F)cc(F)c3)c2CCN1C(=O)c1cccc(OCCF)c1F` [Example 141, (S)-(3-(3,5-Difluorophenyl)-2,7-dimethyl-2,4,5,7-tetrahydro-6H-pyrazolo[3,4-c]pyridin-6-yl)(2-fluoro-3-(2-fluoroethoxy)phenyl)methanone] gave an IC50 of 1.72 nM.
